Data set [1] is described as follows: Water miscibility of solvents. The class given is physicochemical. More on the design: key: -: Where phase separation was visible; +: otherwise. The conditions noted are these: 0.5 ml water + 0.5 ml solvent. The method, then:
Various solvents were tested for their utility with regard to (1) water miscibility, (2) guaiac solubility and (3) color development. Water miscibility was evaluated by admixing 0.5 ml of water with 0.5 ml each solvent, and noting any phase separation. Where phase separation was visible, a "-" appears in Table 2; otherwise, a "+" appears.

The nature of data set [2]: Guaiac solubility in solvents / reagent solubility in water. The method, then:
Color developing reagent was prepared as follows. […] Four ml of a given solvent as indicated in Table 2 were added and the guaiac was allowed to dissolve to the extent possible.
Subsequently, 48 μl of 80% cumene hydroperoxide was added to each tube (except to that containing the water-only sample) to make a complete color developing reagent (solvent, chromogen, oxidant) for testing.

Where two headings read alike, the source gives them in different places.

Take `CCCCCO` [n-Pentanol]: in data set [1], the “WATER MISCIBILITY” value is “-”. In addition, the “GUAIAC SOLUBILITY” value in data set [2] is reported as “+++”.

Regarding `CC(C)c1ccc(CO)cc1` [4-Isopropyl-Benzyl Alcohol], in data set [1], the “WATER MISCIBILITY” value is “-”. Also, in data set [2] (noted visually), the “GUAIAC SOLUBILITY” value is on record as “+++”.

Take `CCOC(C)=O` [Ethyl Acetate]: in data set [1], the “WATER MISCIBILITY” value is “-”. The “GUAIAC SOLUBILITY” value in data set [2] (noted visually) is “++”.

For `CC(C)(OO)c1ccccc1` [cumene hydroperoxide, reference compound], the “solubility of cumene hydroperoxide in water” value in data set [2] (water) is listed as “essentially insoluble in water”.

With `CC(Cl)(Cl)Cl` [1,1,1-trichloroethane], in data set [1], the “WATER MISCIBILITY” value is listed as “-”. Further, the “GUAIAC SOLUBILITY” value in data set [2] (noted visually) was “++”.

As to `CC(C)c1ccccc1` [Cumene], the “WATER MISCIBILITY” value in data set [1] was “-”. In data set [2] (noted visually), the “GUAIAC SOLUBILITY” value is given as “+”.

Take `CCCCCCCCOC(C)=O` [Octyl Acetate]: the “WATER MISCIBILITY” value in data set [1] was “-”. Further, the “GUAIAC SOLUBILITY” value in data set [2] was “++”.

For the compound `CC(C)O` [Isopropanol], the “WATER MISCIBILITY” value in data set [1] is listed as “+”. Moreover, in data set [2] (noted visually), the “GUAIAC SOLUBILITY” value is recorded as “+++”.

Consider `OCCO` [Ethylene Glycol], for which the “WATER MISCIBILITY” value in data set [1] is “+”. Moreover, the “GUAIAC SOLUBILITY” value in data set [2] (noted visually) is reported as “+++”.

In the case of `CCCCCCCO` [n-Heptanol], the “WATER MISCIBILITY” value in data set [1] is given as “-”. In data set [2] (noted visually), the “GUAIAC SOLUBILITY” value is recorded as “+++”.

As for `CC(C)=O` [Acetone], the “WATER MISCIBILITY” value in data set [1] is recorded as “+”. In addition, the “GUAIAC SOLUBILITY” value in data set [2] (noted visually) is “+++”.

Consider `Cc1ccccc1` [Toluene], for which, in data set [1], the “WATER MISCIBILITY” value is on record as “-”.

Regarding `CCCCCCCCO` [n-Octanol], the “WATER MISCIBILITY” value in data set [1] is recorded as “-”. Also, in data set [2], the “GUAIAC SOLUBILITY” value is “+++”.

`CCCCCCCC` [n-Octane]: the “WATER MISCIBILITY” value in data set [1] is “-”. For the same compound, the “GUAIAC SOLUBILITY” value in data set [2] (noted visually) is “-”.

For the compound `CCCCCCO` [n-Hexanol], in data set [1], the “WATER MISCIBILITY” value was “-”.

As for `COC(=O)CC(C)=O` [Methyl-Acetoacetate], in data set [1], the “WATER MISCIBILITY” value is given as “+”. The “GUAIAC SOLUBILITY” value in data set [2] (noted visually) is on record as “+++”.

For the compound `OCc1ccccc1` [Benzyl Alcohol], in data set [1], the “WATER MISCIBILITY” value is on record as “-”. Also, in data set [2], the “GUAIAC SOLUBILITY” value is recorded as “+++”.

Regarding `CCC(C)=O` [Methyl Ethyl Ketone], in data set [1], the “WATER MISCIBILITY” value is on record as “+”.

For `ClCCl` [Dichloromethane], the “WATER MISCIBILITY” value in data set [1] is “-”. The “GUAIAC SOLUBILITY” value in data set [2] (noted visually) is “++”.

Take Hexanes: the “WATER MISCIBILITY” value in data set [1] is “-”. Also, in data set [2], the “GUAIAC SOLUBILITY” value was “-”.

For the compound `CCO` [Ethanol], the “WATER MISCIBILITY” value in data set [1] was “+”. For the same compound, the “GUAIAC SOLUBILITY” value in data set [2] is recorded as “+++”.

On to `CC(=O)CC(C)(C)O` [4-hydroxy, 4 methyl-pentanone], for which the “GUAIAC SOLUBILITY” value in data set [2] is “+++”.

(Values after patent US4777143A, “Method of detecting carboxylic acids in a specimen” (priority 1986, dated 1988).)
